According to patent publication US20110104144A1, “METHODS FOR TREATING CUTANEOUS LUPUS USING AMINOISOINDOLINE COMPOUNDS” (CELGENE CORPORATION, priority 2005, published 2011):

Key:
TNF-α = assay: Ultraviolet B-induced TNF-alpha production by human keratinocytes (HEKn cells), TNF-α ELISA; assay type: cell-based; settings: HEKn cells treated 4 hours at 0.1 μM
Description: Cutaneous lupus patients often experience disease exacerbation when exposed to ultraviolet (UV) light. This is thought to be due to UVB-induced TNF-α production by keratinocytes. […] In vitro study for cutaneous lupus was performed to investigate how the compounds of the invention affect TNF-α production in keratinocytes.
Human neonatal foreskin epidermal keratinocytes (HEKn cells) were obtained from Cascade Biologics and were grown in serum-free medium supplemented with growth factors. When cells reached 80% confluency, they were trypsinized and plated at 1×10^5 cells/well in 6 well dishes. Plates were incubated for 24 hours to allow cell adhesion. To optimize conditions for the release of TNF-α, cells were treated with various degrees of exposure to UVB radiation (1, 4 and 24 hours). Supernatants were then collected and tested in the TNF-α ELISA.
Supernatants were collected and tested in the TNF-α ELISA at 1 Hour (bars with no pattern), 4 Hours (lined bars), or 24 Hours (checkered bars) after exposure. Results are the average of two experiments. The results shown in FIG. 7 indicate that supernatants collected 24 hours after HEKn cells were exposed to UVB had the highest levels of TNF-α. After exposure to 10, 50, or 100 mJ/cm^2, cells remained attached to the wells and no cell damage was observed. The 300 mJ/cm^2 UVB exposure was too high for the HEKn cells and many cells were damaged and detached from the bottom of the wells.
Cells were treated for 4 hours with (+)-2-[1-(3-ethoxy-4-methoxyphenyl)-2-methylsulfonylethyl]-4-acetylaminoisoindoline-1,3-dione (compound named 10004), or cyclopropyl {2-[(1S)-1-(3-ethoxy-4-methoxyphenyl)-2-(methylsulfonyl)ethyl]-3-oxoisoindolin-4-yl}carboxamide (compound named 11050) at 0.1 μM, 1 μM, or 10 μM. Medium was aspirated the cells washed and then exposed to 50 mJ/cm^2 UVB radiation. Fresh medium was added and the cells were incubated for 24 hours. Supernatents were removed and tested in the TNF-α ELISA kit from Pierce Biotechnology. […] (FIG. 8). […] (FIG. 8).
In other experiments, cells were treated for 4 hours with 3-(4-amino-1-oxo-1,3-dihydro-isoindol-2-yl)-piperidine-2,6-dione (compound named 5013), (+)-2-[1-(3-ethoxy-4-methoxyphenyl)-2-methylsulfonylethyl]-4-acetylaminoisoindoline-1,3-dione (compound named 10004) or compound named 16057, at 0.1 μM or 1 μM. […] (FIG. 9). […] (FIG. 9).

CD51/61 = assay: HUVEC cell surface expression of CD51/61 by flow cytometry; assay type: cell-based, Human; settings: unstimulated, 10 μM, FIG. 1
Description: (§1) A) Materials. Human Umbilical Vein Endothelial Cells (HUVEC) sent from LifeBank, were tested in Experiments A-K with several adhesion molecules. The adhesion molecules tested were CD51/CD61FITC (obtained from BD PharMingen, San Diego, Calif.; Catalog No. 555505), ICAM-1 PE also known as CD54 (obtained from BD PharMingen, San Diego, Calif.; Catalog No. 555511), ICAM-2 also known as CD102 (obtained from Research Diagnostics Inc., Concord, Mass.; Catalog No. RDI-CBL539FT), VCAM-1 (obtained from BD PharMingen, San Diego, Calif.; Catalog No. 555647), P-Selectin FITC (obtained from R&D Systems, Inc., Minneapolis, Minn.; Catalog No. BBA34), E-Selectin FITC (obtained from R&D Systems, Inc., Minneapolis, Minn.; Catalog No. BBA21), HLA Class I FITC (obtained from BD PharMingen, San Diego, Calif.; Catalog No. 555553), HLA Class II PE (obtained from BD PharMingen, San Diego, Calif.; Catalog No. 555558), CD44 FITC (obtained from BD PharMingen, San Diego, Calif.; Catalog No. 347943), CD144 (Cadherin VE) (obtained from CHEMICON International, Inc., Temecula, Calif.; Catalog No. MAB1989), IgG2a FITC (obtained from BD PharMingen, San Diego, Calif.; Cat #556652), Ms IgG2a (obtained from CHEMICON International, Inc., Temecula, Calif.; Cat. No. PP102), IgG1 FITC (obtained from BD PharMingen, San Diego, Calif.; Cat. No. 349041) and IgG1 PE (obtained from BD PharMingen, San Diego, Calif.; Cat. No. 349043).
(§2) Compound (1) ((+)-2-[1-(3-ethoxy-4-methoxyphenyl)-2-methylsulfonylethyl]-4-acetylaminoisoindoline-1,3-dione) and Compound (2) (4-(amino)-2-(2,6-dioxo(3-piperidyl))-isoindoline-1,3-dione) were obtained according to the preparation procedures disclosed herein. 16,16-Dimethyl-PGE2 (hereinafter PGE2) was obtained from BIOMOL International, L.P. (Plymouth Meeting, Pa.; Catalog No. PG-021). TNF-αwas obtained from Pierce Biotechnology (Rockford, Ill.; Catalog No. RTNFA 10).
(§3) B) Methods. […]

E-Selectin [1] = assay: HUVEC cell surface expression of E-Selectin by flow cytometry; assay type: cell-based, Human; settings: 10 μM; for inhibition of TNF-α-induced E-Selectin expression: TNF-α (1 ng/ml) stimulated, FIG. 3
Description: as §1, §2
(§4) B) Methods. HUVEC's were plated on 6-well plates at a concentration of 1×10^5 cells/well in 3 ml EBM® endothelial basal media (obtained from Cambrex Corporation, East Rutherford, N.J.; Catalog No. CC-3121) and singlequots (obtained from Cambrex Corporation, East Rutherford, N.J.; Catalog No. CC-4133). The cells were incubated overnight in a 37° C. and 5% CO2 humidified incubator to allow cells to attach. The old media was removed in next day and replaced with 3 ml fresh EBM® endothelial basal media. Then, samples of 3 μl of 10 mM of Compound (1), Compound (2), PGE2 and a mixture of Compound (1) and PGE2 were added separately to each well of the plates in duplicate to give a final concentration of 10 μM. An unstimulated DMSO control and a TNF-α-stimulated control were also added in duplicate. The plates were incubated in a 37° C. and 5% CO2 humidified incubator for 1 hr. […] The plates were incubated overnight in a 37° C. and 5% CO2 humidified incubator. The cells were also tested without TNF-α. The media was removed in the next day and each well was washed with 3 ml of phosphate buffered saline (PBS). Then, 3 ml of PBS containing 1 mM of EDTA (ethylenediaminetetraacetate) was added to each well to allow the cells to detach. Once the cells detached, they were gently scraped and placed in 4.5 ml Falcon tubes. The tubes were then centrifuged at 1200 RPM for 8 minutes at 4° C. The supernatant was carefully removed. Next, 50 μl of PBS-FACS buffer (5% fetal bovine serum (FBS), 0.02% sodium azide in PBS) and 20 μl of antibodies were added to all tubes as follows:
(§5) After the antibodies were added, the tubes were incubated on ice for 30 minutes and covered with foil. Then, the tubes were centrifuged at 1200 RPM for 8 minutes at 4° C. The supernatant was carefully removed. The cells were re-suspended in 2 ml of PBS-FACS buffer and centrifuged again as above. The supernatant was carefully removed again and the cells were re-suspended in 500 μl of PBS-FACS buffer. The tubes were then analyzed using a flow cytometer. […]

P-Selectin = assay: HUVEC cell surface expression of P-Selectin by flow cytometry; assay type: cell-based, Human; settings: 10 μM
Description: as §1, §2, §4, §5

VE-Cadherin = assay: HUVEC cell surface expression of VE-Cadherin (CD144) by flow cytometry; assay type: cell-based, Human; settings: 10 μM, FIG. 4
Description: as §1, §2, §3

CD44 = assay: HUVEC cell surface expression of CD44 by flow cytometry; assay type: cell-based, Human; settings: 10 μM, FIG. 4
Description: as §1, §2, §3

E-Selectin [2] = assay: E-Selectin cell surface expression in HUVEC detected by ELISA; assay type: cell-based, Human; settings: HUVEC, 0.25, 0.5 and 1 ng/ml of TNF-α, 10 μM, FIG. 6
Description: In this assay, the mixture of Compound (1) and PGE2 appeared to work synergistically.

VCAM = assay: HUVEC cell surface expression of VCAM by flow cytometry; assay type: cell-based, Human; settings: TNF-α stimulated, 10 μM, FIG. 5
Description: A) Materials. Human Umbilical Vein Endothelial Cells (HUVEC) sent from LifeBank, were tested in Experiments A-K with several adhesion molecules. […]

Compound: Nc1cccc2c1CN(C1CCC(=O)NC1=O)C2=O (centres unmarked) [Compound 5013, 3-(4-amino-1-oxo-1,3-dihydro-isoindol-2-yl)-piperidine-2,6-dione]
- TNF-α levels after UVB exposure with the 0.1 μM treatment (TNF-α; UVB, FIG. 9): TNF-α levels lower than cells not treated with radiation

Compound: Nc1cccc2c1C(=O)N(C1CCC(=O)NC1=O)C2=O (centres unmarked) [Compound (2), 4-(amino)-2-(2,6-dioxo(3-piperidyl))-isoindoline-1,3-dione]
- CD51/61 cell surface expression compared to untreated conditions (CD51/61): unaffected
- inhibition of TNF-α-induced E-Selectin expression (E-Selectin [1]): approximately 20%
- E-Selectin cell surface expression (E-Selectin [1]; unstimulated, FIG. 2): inhibited
- increase of TNF-α-induced cell expression of P-Selectin above baseline (P-Selectin; TNF-α (1 ng/ml) stimulated, FIG. 3): > 2 fold
- increase of P-Selectin expression (P-Selectin; TNF-α stimulated, FIG. 5): ~2 fold
- inhibition of P-Selectin expression (P-Selectin; unstimulated, FIG. 2): ~35%
- TNF-α-stimulated cell surface expression of VE-Cadherin (VE-Cadherin): unaffected
- inhibition of TNF-α-stimulated cell surface expression of CD44 (CD44): approximately 30%
- TNF-α-stimulated E-Selectin cell surface expression (ELISA) (E-Selectin [2]): inhibitory effect

Compound: CCCCC(C)(C)[C@H](O)/C=C/[C@H]1[C@H](O)CC(=O)[C@@H]1C/C=C\CCCC(=O)O [PGE2, 16,16-Dimethyl-PGE2, reference compound]
- reduction in the CD51/61 cell surface expression (CD51/61): 20%
- inhibition of TNF-α-induced E-Selectin expression (E-Selectin [1]): 50%
- cell surface expression of E-Selectin (E-Selectin [1]; TNF-α stimulated, FIG. 5): significantly decreased
- TNF-α-stimulated cell surface expression of VE-Cadherin (VE-Cadherin): unaffected
- TNF-α-stimulated cell surface expression of CD44 (CD44): no detectable effects
- cell surface expression of VCAM (VCAM): significantly decreased

Compound: CCOc1cc([C@@H](CS(C)(=O)=O)N2Cc3cccc(NC(=O)C4CC4)c3C2=O)ccc1OC [Compound 11050, cyclopropyl {2-[(1S)-1-(3-ethoxy-4-methoxyphenyl)-2-(methylsulfonyl)ethyl]-3-oxoisoindolin-4-yl}carboxamide]
- levels of TNF-α released after UVB exposure (TNF-α; 1 μM, or 10 μM, 50 mJ/cm^2 UVB, 24 hours, FIG. 8): dose dependent decrease
